Among the test systems are NCI-H522; HL-60; CCRF-CEM; NCI-H460; A549; 786-0; RPMI-8226; SNB-19; OVCAR-4; EKVX; K562; SNB-75; SF-268; OVCAR-3; NCI-H226; RXF 393.
Assay in all cases: inhibition of tumour cell growth, NCI panel, 48 h

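Tested at 5 concentrations; 48 h exposure; 96-well plates; endpoints linearly interpolated, else capped at highest concentration. GI50 is the concentration that inhibits growth by half.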 Activity calls are given as the source filed them. Rule as the data show it: active = GI50 up to about 1.1 µM and inactive = higher.

On to `COc1ccc2nc(-c3ccccn3)cc(O)c2c1`, for which the GI50 in the experiment with NCI-H522 was 20.4 µM (inactive); in the experiment with HL-60 it was 34 µM (inactive); in the experiment with CCRF-CEM it was 51.2 µM (inactive); with NCI-H460, 34.7 µM (inactive); with A549, 44 µM (inactive); in the experiment on 786-0, 90.2 µM (inactive). Besides, the GI50 was 37.8 µM (inactive) with RPMI-8226; > 100 µM (inactive) in the experiment with SNB-19; 72.3 µM (inactive) in the experiment with OVCAR-4; 55.3 µM (inactive) in the experiment with EKVX; 17.4 µM (inactive) in the experiment on K562; 18.4 µM (inactive) with SNB-75.
In the case of `CC(=O)NC1C(OCc2ccccc2)OC(COC(=O)CCCCCCCCCCNC(=O)c2cccc3c(=O)c4ccccc4[nH]c23)C(O)C1OC(C)C(=O)NC(C)C(=O)NC(CCC(N)=O)C(N)=O` (stereo unspecified), the GI50 in the experiment on SF-268 is > 100 µM (inactive); with NCI-H522, 89.1 µM (inactive); in the experiment with HL-60 it was > 100 µM (inactive); in the experiment with OVCAR-3, 43.8 µM (inactive); in the experiment on NCI-H460 it was 61.5 µM (inactive); in the experiment on A549, 40.9 µM (inactive). In addition, the GI50 in the experiment on 786-0 was > 100 µM (inactive); with NCI-H226, 38.7 µM (inactive); with RPMI-8226, 32.1 µM (inactive); with SNB-19 it was 47.3 µM (inactive); in the experiment with OVCAR-4, 61 µM (inactive); in the experiment on EKVX, > 100 µM (inactive). Besides, the GI50 with K562 is 35.6 µM (inactive); in the experiment with SNB-75 it was 56.9 µM (inactive).
With `S=c1cc(S)c2c(=S)sc3nc4ccccn4c(=S)c3c2s1`, the GI50 is 36.1 µM (inactive) in the experiment on HL-60; 32.7 µM (inactive) in the experiment with CCRF-CEM; 28.2 µM (inactive) with OVCAR-3; 21.3 µM (inactive) in the experiment with NCI-H460; > 100 µM (inactive) in the experiment with A549; 75.5 µM (inactive) in the experiment with 786-0. In addition, the GI50 with NCI-H226 is > 100 µM (inactive); in the experiment on RPMI-8226 it was > 100 µM (inactive); in the experiment on SNB-19, 52.5 µM (inactive); with RXF 393, > 100 µM (inactive); with OVCAR-4, > 100 µM (inactive); with EKVX, 81.8 µM (inactive). In addition, the GI50 is 18.5 µM (inactive) in the experiment on K562 and > 100 µM (inactive) with SNB-75.
For the compound `C/C=C(\CCOS(=O)(=O)c1ccc(C)cc1)[Si](C)(C)C`, the GI50 was > 100 µM (inactive) in the experiment on SF-268; > 100 µM (inactive) in the experiment on NCI-H522; > 100 µM (inactive) with HL-60; 0.115 µM (active) in the experiment on CCRF-CEM; > 100 µM (inactive) in the experiment on OVCAR-3; > 100 µM (inactive) in the experiment on NCI-H460. For the same compound, the GI50 in the experiment with A549, in the experiment with 786-0, in the experiment with RPMI-8226, in the experiment on SNB-19, in the experiment on RXF 393 and in the experiment on EKVX was > 100 µM (inactive) throughout. For the same compound, the GI50 in the experiment on K562 and in the experiment with SNB-75 was > 100 µM (inactive) each time.
For `COC(=O)c1cc2c(c(C(=O)OC)c1O)C(=O)C=CC2=O`, the GI50 in the experiment on SF-268 was > 40.6 µM (inactive); in the experiment with CCRF-CEM, 1.63 µM (inactive); in the experiment on OVCAR-3, > 41.2 µM (inactive); with NCI-H460 it was > 50.1 µM (inactive); with A549, > 42.8 µM (inactive); in the experiment with 786-0, 35.7 µM (inactive). For the same compound, the GI50 in the experiment with NCI-H226 was > 9.1 µM (inactive); in the experiment with RPMI-8226, > 9.1 µM (inactive); in the experiment on SNB-19 it was > 42.7 µM (inactive); in the experiment with RXF 393, > 29.1 µM (inactive); in the experiment on OVCAR-4, > 38.8 µM (inactive); in the experiment with EKVX, > 21.2 µM (inactive). The GI50 in the experiment on SNB-75 is 9.95 µM (inactive).
With `Cc1ccc([S+]([O-])C(C)C(Cl)c2ccccc2)cc1` (stereo unspecified), the GI50 was > 100 µM (inactive) in the experiment with SF-268; 28.9 µM (inactive) in the experiment with NCI-H522; 47.6 µM (inactive) in the experiment on CCRF-CEM; 53.7 µM (inactive) in the experiment on OVCAR-3; > 100 µM (inactive) with NCI-H460; > 100 µM (inactive) in the experiment on 786-0. The GI50 is > 100 µM (inactive) in the experiment on NCI-H226; 35.9 µM (inactive) in the experiment on RPMI-8226; 53.7 µM (inactive) in the experiment with RXF 393; > 100 µM (inactive) in the experiment on OVCAR-4; 45.8 µM (inactive) in the experiment with K562; 48.6 µM (inactive) in the experiment with SNB-75.
As for `N#Cc1c2ccccc2cn1-c1ccc(F)cc1`, the GI50 with SF-268 was 24.5 µM (inactive); with NCI-H522, 14.4 µM (inactive); in the experiment on HL-60, 4.62 µM (inactive); in the experiment with CCRF-CEM, 31 µM (inactive); with OVCAR-3 it was 19.8 µM (inactive); in the experiment on NCI-H460, 29.7 µM (inactive). In addition, the GI50 in the experiment on A549 was 24.6 µM (inactive); in the experiment on 786-0, 30.3 µM (inactive); in the experiment with NCI-H226 it was 9.27 µM (inactive); in the experiment with RPMI-8226 it was 22 µM (inactive); with SNB-19 it was 22.4 µM (inactive); in the experiment with OVCAR-4, 8.73 µM (inactive). The GI50 is 26.7 µM (inactive) with K562 and 2.61 µM (inactive) in the experiment on SNB-75.
In the case of `CSc1nc(SC)c2c(C(N)=S)n[nH]c2n1`, the GI50 was 31.2 µM (inactive) in the experiment with SF-268; > 10 µM (inactive) in the experiment with NCI-H522; 26.2 µM (inactive) in the experiment on CCRF-CEM; 22.1 µM (inactive) with OVCAR-3; 23.6 µM (inactive) with NCI-H460; 23 µM (inactive) with A549. In addition, the GI50 is 28.4 µM (inactive) in the experiment on 786-0; 19.9 µM (inactive) in the experiment with NCI-H226; 23.1 µM (inactive) in the experiment on RPMI-8226; 27.1 µM (inactive) with SNB-19; 22.8 µM (inactive) in the experiment with RXF 393; 21.2 µM (inactive) with OVCAR-4. For the same compound, the GI50 with EKVX was 22.2 µM (inactive); in the experiment on K562, 26.2 µM (inactive); in the experiment with SNB-75 it was 25.9 µM (inactive).
`Cc1cc2c(c3nocc13)C(=O)c1ccccc1C2=O`: the GI50 in the experiment with SF-268 was > 100 µM (inactive); in the experiment on NCI-H522, > 100 µM (inactive); in the experiment with HL-60 it was 98.2 µM (inactive); with CCRF-CEM, > 100 µM (inactive); with OVCAR-3 it was > 100 µM (inactive); with NCI-H460, > 100 µM (inactive). Further, the GI50 in the experiment on A549, in the experiment with 786-0, in the experiment on RPMI-8226, in the experiment on SNB-19, with RXF 393 and with OVCAR-4 was > 100 µM (inactive) in each case. The GI50 in the experiment with EKVX is > 100 µM (inactive); in the experiment with K562, > 100 µM (inactive); in the experiment on SNB-75 it was 28.6 µM (inactive).
For `[N-]=[N+]=NC1C(Br)C(=O)NC(=O)N1[C@H]1C[C@H](O)[C@@H](CO)O1` (stereo partly specified), the GI50 in the experiment with SF-268, in the experiment with NCI-H522, in the experiment on HL-60, in the experiment on OVCAR-3, in the experiment with NCI-H460 and in the experiment with A549 was > 100 µM (inactive) in each case. In addition, the GI50 in the experiment on 786-0, with SNB-19, in the experiment with RXF 393, in the experiment on OVCAR-4, with EKVX and with K562 was > 100 µM (inactive) throughout. Also, the GI50 in the experiment on SNB-75 is > 100 µM (inactive).

The values are drawn from ChEMBL document CHEMBL1201862, “PubChem BioAssay data set” (2004).
